No end group written: not given here.
How the values were obtained:
[1] = test system: explanted mouse adrenal membrane (adrenal halves); assay: in vitro Serum-free Adrenal Inhibition Assay (Example 4); type: cell-based; conditions: FIG. 4
Procedure: A series of separate in vitro Serum-Free Adrenal Corticosteroid Inhibition Assay were performed to identify ACTH analogs that inhibit ACTH-induced adrenal hormone production in vitro. The concentration of corticosterone was measured according to the procedure of Example 4 in a serum-free culture medium containing explanted adrenal membrane and unmodified ACTH, AT814 ACTH analog (SEQ ID NO:20), or a combination of ACTH and AT814 at 100 ng/mL each. […] Corticosterone levels were taken at 2.0 hours after the adrenal membrane was placed in the serum free M199 medium, and each corticosterone level in Table 5 is an average of five samples.
The in vitro Serum-free Adrenal Inhibition Assay was performed according the following method. First, adrenals were removed from mice, dissected free of fat, and cut in half. See Costa, J L, et al., “Mutational analysis of evolutionarily conserved ACTH residues,” Gen Comp Endocrinol. 136:12-16 (2004); and Weber, M M, et al., “Postnatal overexpression of insulin-like growth factor II in transgenic mice is associated with adrenocortical hyperplasia and enhanced steroidogenesis,” Endocrinology 140:1537-1543 (1999), incorporated herein by reference.
Second, each adrenal half was placed into an individual well of a 4-well dish, one dish per mouse. Adrenal halves were incubated at 5% CO2, 37° C., in 0.5 ml serum-free medium (M199; Invitrogen) for 30 minutes to equilibrate.
Third, medium was removed and replaced by 0.5 ml M199 containing ACTH, AT814, or both, at 100 ng/ml each; controls had no peptides added.
Fourth, after 2 hours of incubation, the medium was removed, pooled for all four halves from each mouse, and assayed by corticosterone using standard RIA methods. corticosterone was determined by competitive radioimmunoassay (^125I RIA kit; ICN, Costa Mesa, Calif.) according to the manufacturer's recommendations. One microliter of serum was used per assay sample. Samples were run in duplicates.

[2] = test system: dexamethasone-suppressed male FVB/N mice; assay: in vivo Serum Corticosteroid Induction Assay (Example 1); design: species or system mouse; conditions: relative to unmodified mACTH(1-24); 1 μg subcutaneously to dexamethasone-suppressed mice; blood one hour later
Procedure: An in vivo Serum Corticosteroid Induction Assay measures the level of corticosteroid or corticosterone in the blood stream of a subject. More specifically, the in vivo Serum Corticosteroid Induction Assay can include the following steps: first, an agent to suppress endogenous ACTH production was administered to a mouse subject, such as an intraperitoneal injection of dexamethasone; second, after waiting a suitable period of time for suppression of endogenous ACTH production (e.g., 1.5-2.0 hours), a test compound can be administered to the mouse by a suitable method, such as intraperitoneal or subcutaneous injection; and third, after waiting a suitable period of time (e.g., 1 hour) for action of the injected test compound, a blood sample can be taken from the subject and the level of serum corticosterone can be determined by a suitable method, such as a competitive radioimmunoassay using ^125I RIA kit (ICN, Costa Mesa, Calif.). Example 1 describes a murine in vivo Serum Corticosteroid Induction Assay in detail.
The corticosteroid or corticosterone secretion induced in vivo by an ACTH analog compound was compared to the level of corticosteroid secretion produced by an unmodified ACTH compound by measuring blood serum corticosteroid after administering either the ACTH or ACTH analog as test compounds. […] ACTH analog compositions with decreased function were identified by measuring corticosterone levels using standard radioimmunoassay (RIA) analysis on blood samples collected one hour after administering the mACTH(1-24) or ACTH analog compound to dexamethasone-suppressed mice. In FIG. 1, the potency of various ACTH analog peptides is expressed as percent induction of corticosterone, with mouse ACTH being 100%. […] The percent of corticosterone induction 12 of ACTH analog Compounds in Samples 2-10 are shown as a percentage of the concentration of serum corticosterone 20 measured for unmodified mACTH(1-24) in the in vivo Serum Corticosteroid Adrenal Induction Assay. The structural modifications and measured percentage reduction in serum measured for Samples 2-10 in FIG. 1 are shown in Table 3 below.
The in vivo Serum Corticosteroid Induction Assay was performed according the following method. First, two to three month-old male FVB/N mice from our colony, five per group, were injected intraperitoneally with dexamethasone (0.4 mg/0.1 ml PBS per mouse; Sigma, St. Louis, Mo.) to suppress their endogenous ACTH production. See Hajos, G T et al., “Studies of the potency of polypeptides with ACTH action by a new method based on continuous measurement of plasma corticosterone,” Steroids Lipids Res 3:225-228 (1972), Costa, J L, et al., “Mutational analysis of evolutionarily conserved ACTH residues,” Gen Comp Endocrinol, 136:12-16 (2004), and Karpac, J, et al., “Development, Maintenance, and Function of the Adrenal Gland in Early Postnatal Pro-opiomelanocortin Null Mutant Mice,” Endocrinology (2005), published online ahead of print Feb. 24, 2005, all of which are incorporated herein by reference.
Second, ninety to one hundred twenty minutes later, the dexamethasone-suppressed mice were injected subcutaneously between the shoulder blades with either unmodified mACTH(1-24) or one of several ACTH analog peptide compounds (1 μg/0.1 mL PBS/0.5% BSA), or with vehicle alone (control) (0.1 mL PBS/0.5% BSA). The following ACTH analog peptide compounds were administered to separate mice: 1: murine ACTH1-24; 2: V26F,E30K; 3: P19W,K21E,Y23R; 4: E30K,P36R; 5: ALA19-24; 6: V26F,P36R; 7: P19W, K21E; 8: P19W,K21A,delY23; 9: P19W,K21A; 10: KRRP16-19RAAW (AT814) (SEQ ID NO:20).
Third, one hour later, blood was collected within less than 1 minute from a small incision in the tail, and serum was flash-frozen and stored at −80° C. until assayed. Serum corticosterone was determined by competitive radioimmunoassay (^125I RIA kit; ICN, Costa Mesa, Calif.) according to the manufacturer's recommendations. One microliter of serum was used per assay sample. […]

Substance: N-Ser^1-Tyr-Ser-Met-Glu^5-His-Phe-Arg-Trp-Gly^10-Lys-Pro-Val-Gly-Lys^15-Arg-Ala-Ala-Trp-Val^20-Lys-Val-Tyr-Pro-Ac (SYSMEHFRWGKPVGKRAAWVKVYP; not fully specified; printed as N-Ser1-Tyr-Ser-Met-Glu5-His-Phe-Arg-Trp-Gly10-Lys-Pro-Val-Gly-Lys15-Arg-Ala-Ala-Trp-Val20-Lys-Val-Tyr-Pro-Ac) [AT814]
- corticosterone induction by analog alone ([1]; AT814 alone in M199 serum-free medium): only a negligible amount of corticosterone induction
- reduction of corticosterone induction compared to unmodified ACTH alone ([1]; equal amounts of AT814 and unmodified ACTH): about 65%
- Percent reduction in serum corticosteroid [2]: 100%
